Key:
[1] = test system: patients with relapsed multiple myeloma; experiment: Randomized, double-blind, placebo-controlled, multicenter study (PANORAMA-1) of panobinostat plus bortezomib and dexamethasone; type: in vivo
Description: Treatment was administered for a maximum of 16 cycles (48 weeks).
Demographics and baseline disease characteristics were balanced between arms. The median age was 63 years (range 28 to 84); 42% of patients were older than 65 years; 53% of patients were male. The ECOG (Eastern Cooperative Oncology Group) performance status was 0 to 1 in 93% of patients. The median number of prior therapies was 1; 48% of patients received 2 or 3 prior lines of therapy. More than half (57%) of the patients had prior stem cell transplantation. The most common prior antineoplastic therapies were corticosteroids (90%), melphalan (80%), thalidomide (53%), cyclophosphamide (47%), bortezomib (44%), and lenalidomide (19%). The median duration of follow-up was 29 months in both arms.
The primary endpoint was progression-free survival (PFS), using modified European Bone Marrow Transplant Group (EBMT) criteria, as assessed by the investigators. […] The efficacy and safety in a subgroup analysis of 193 patients who had received prior treatment with both bortezomib and an immunomodulatory agent and a median of 2 prior therapies as the benefit: risk appeared to be greater in this more heavily pretreated population than in the overall trial population. Of these 193 patients, 76% of them had received ≥2 prior lines of therapy.

[2] = test system: cardiac ventricular repolarization (QT interval); experiment: Pooled clinical data from over 500 patients treated with single agent panobinostat: QTc prolongation; type: in vivo, human
Source text: Panobinostat may prolong cardiac ventricular repolarization (QT interval).

Cc1[nH]c2ccccc2c1CCNCc1ccc(/C=C/C(=O)NO)cc1 [panobinostat]
serious toxicities observed ([1]; PANORAMA clinical study, patients receiving panobinostat): severe and fatal ischemic events, severe arrhythmias and ECG changes | gastrointestinal toxicity ([1]; in vivo): common | incidence of CTC Grade 3 QTc prolongation (QTcF >500 msec) ([2]; at a dose of 60 mg or higher): ≥ 5% | incidence of CTC Grade 3 QTc prolongation (QTcF >500 msec) ([2]; multiple indications, different dose levels, overall): approximately 1%

— patent US20200093795A1 (Secura Bio, Inc., priority 2015, published 2020)
